Measured values reported in the NIST ThermoML archive (doi:10.1021/je060271a).

Conditions: 283.15 K, Liquid, Vibrating tube method

CCCC(=O)OCC(COC(=O)CCC)(COC(=O)CCC)COC(=O)CCC [pentaerythritol tetrabutyrate]
Conditions	mass density [kg/m3]
5069.8 kPa	1062.1
5785 kPa	1062.4
5790.3 kPa	1062.5
5796.4 kPa	1062.5
6791.4 kPa	1063
7204.6 kPa	1063.2
7259.3 kPa	1063.3
7320.1 kPa	1063.4
7411.4 kPa	1063.4
7437.1 kPa	1063.4
7462.9 kPa	1063.3
7545.9 kPa	1063.4
7572.6 kPa	1063.5
7606 kPa	1063.5
7632.9 kPa	1063.5
7657.7 kPa	1063.5
7681.7 kPa	1063.5
7710.4 kPa	1063.4
7734.6 kPa	1063.6
8293.1 kPa	1063.8
11358 kPa	1065.7
11377 kPa	1065.7
11399 kPa	1065.7
11419 kPa	1065.6
11438 kPa	1065.6
11456 kPa	1065.7
11667 kPa	1065.7
11687 kPa	1066
11708 kPa	1065.9
11731 kPa	1065.8
11751 kPa	1065.9
11775 kPa	1066
11795 kPa	1066
11816 kPa	1065.9
11836 kPa	1065.9
11862 kPa	1065.9
11882 kPa	1065.9
11903 kPa	1065.9
11928 kPa	1066
11949 kPa	1066
11995 kPa	1065.9
12016 kPa	1066
13152 kPa	1066.7
13178 kPa	1066.7
13234 kPa	1066.6
13898 kPa	1067.1
15509 kPa	1068
15590 kPa	1068
15620 kPa	1068.1
15664 kPa	1068.1
15701 kPa	1068
15739 kPa	1068
15784 kPa	1068.2
15822 kPa	1068.1
15860 kPa	1068.2
15906 kPa	1068.2
17727 kPa	1069.2
17738 kPa	1069.3
17748 kPa	1069.2
17759 kPa	1069.3
17769 kPa	1069.2
17778 kPa	1069.1
18091 kPa	1069.4
18103 kPa	1069.5
18112 kPa	1069.4
18122 kPa	1069.4
18135 kPa	1069.5
18145 kPa	1069.4
18166 kPa	1069.5
18176 kPa	1069.4
18264 kPa	1069.5
18274 kPa	1069.6
18296 kPa	1069.4
18306 kPa	1069.5
18318 kPa	1069.6
18328 kPa	1069.5
18338 kPa	1069.5
18351 kPa	1069.5
18864 kPa	1069.8
18899 kPa	1069.8
18956 kPa	1069.9
18967 kPa	1069.8
18980 kPa	1069.6
18991 kPa	1069.8
19143 kPa	1069.9
19349 kPa	1070.2
19360 kPa	1070.1
19371 kPa	1070.1
19383 kPa	1070
19397 kPa	1070.1
19419 kPa	1070.1
19433 kPa	1070.3
19458 kPa	1070.2
19470 kPa	1070.1
20345 kPa	1070.6
20358 kPa	1070.6
20371 kPa	1070.7
20383 kPa	1070.7
20398 kPa	1070.7
20411 kPa	1070.7
20426 kPa	1070.8
20439 kPa	1070.8
20452 kPa	1070.6
20631 kPa	1070.8
20647 kPa	1070.9
20659 kPa	1070.9
20673 kPa	1070.8
20689 kPa	1070.8
20702 kPa	1070.8
20718 kPa	1070.8
20731 kPa	1070.8
20744 kPa	1070.9
20757 kPa	1070.9
20943 kPa	1071
20960 kPa	1071
20973 kPa	1071
20987 kPa	1071
21354 kPa	1071.2
21371 kPa	1071.2
21386 kPa	1071.4
21583 kPa	1071.3
21614 kPa	1071.3
21629 kPa	1071.5
21646 kPa	1071.3
21661 kPa	1071.2
21676 kPa	1071.4
21691 kPa	1071.4
21708 kPa	1071.3
21738 kPa	1071.4
21756 kPa	1071.4
21770 kPa	1071.4
21833 kPa	1071.5
21848 kPa	1071.5
21866 kPa	1071.5
21881 kPa	1071.5
21895 kPa	1071.5
21910 kPa	1071.5
21928 kPa	1071.5
21943 kPa	1071.7
21958 kPa	1071.6
21976 kPa	1071.6
21991 kPa	1071.5
22008 kPa	1071.6
22350 kPa	1071.7
22366 kPa	1071.8
22381 kPa	1071.6
22400 kPa	1071.8
22416 kPa	1071.7
22432 kPa	1071.7
22448 kPa	1071.7
22467 kPa	1071.7
22485 kPa	1071.7
22500 kPa	1071.8
22516 kPa	1071.7
22535 kPa	1071.9
22551 kPa	1072
22567 kPa	1071.8
22586 kPa	1071.9
22602 kPa	1071.9
22618 kPa	1071.8
22634 kPa	1071.9
22654 kPa	1071.9
22670 kPa	1072
22686 kPa	1071.9
22706 kPa	1071.9
22722 kPa	1071.9
22738 kPa	1071.9
22754 kPa	1071.9
22774 kPa	1071.9
22806 kPa	1072
22894 kPa	1072.1
22914 kPa	1072
22930 kPa	1072.1
22946 kPa	1072
22964 kPa	1072.1
22984 kPa	1072
23000 kPa	1072.1
23143 kPa	1072.2
23160 kPa	1072.1
23177 kPa	1072.1
23197 kPa	1072.2
23214 kPa	1072.3
23231 kPa	1072.3
23249 kPa	1072.2
23286 kPa	1072.2
23303 kPa	1072.3
23324 kPa	1072.2
23341 kPa	1072.3
23358 kPa	1072.2
23379 kPa	1072.2
23396 kPa	1072.3
23413 kPa	1072.3
23731 kPa	1072.5
23749 kPa	1072.5
23882 kPa	1072.6
23900 kPa	1072.5
23921 kPa	1072.6
23939 kPa	1072.5
23958 kPa	1072.7
23980 kPa	1072.6
23998 kPa	1072.5
24016 kPa	1072.7
24272 kPa	1072.8
24291 kPa	1072.8
24313 kPa	1072.8
24675 kPa	1073
24694 kPa	1073
24718 kPa	1073
24737 kPa	1073
24756 kPa	1073
24780 kPa	1073
24799 kPa	1073.1
24819 kPa	1073
24842 kPa	1073.1
24862 kPa	1073.1
24882 kPa	1073.1
24902 kPa	1073.1
24926 kPa	1073.1
24945 kPa	1073.1
24969 kPa	1073.2
25008 kPa	1073.3
25032 kPa	1073.1
25052 kPa	1073.1
25072 kPa	1073.2
25092 kPa	1073.2
25112 kPa	1073.3
25136 kPa	1073.2
25157 kPa	1073.1
25182 kPa	1073.3
25201 kPa	1073.3
25225 kPa	1073.2
25246 kPa	1073.2
25266 kPa	1073.3
25287 kPa	1073.3
25311 kPa	1073.3
25332 kPa	1073.3
25353 kPa	1073.3
25378 kPa	1073.3
25399 kPa	1073.4
25420 kPa	1073.3
25441 kPa	1073.3
25465 kPa	1073.5
25486 kPa	1073.3
25598 kPa	1073.4
25620 kPa	1073.5
25641 kPa	1073.6
25666 kPa	1073.5
25688 kPa	1073.6
25710 kPa	1073.5
25731 kPa	1073.6
25757 kPa	1073.5
25778 kPa	1073.5
25799 kPa	1073.5
25820 kPa	1073.5
25846 kPa	1073.6
25867 kPa	1073.5
25889 kPa	1073.7
25915 kPa	1073.5
25936 kPa	1073.6
25958 kPa	1073.7
25985 kPa	1073.7
26009 kPa	1073.6
26031 kPa	1073.7
26052 kPa	1073.7
26074 kPa	1073.8
26101 kPa	1073.8
26122 kPa	1073.6
26148 kPa	1073.8
26170 kPa	1073.8
26193 kPa	1073.7
26219 kPa	1073.8
26241 kPa	1073.8
26264 kPa	1073.8
26290 kPa	1073.8
26313 kPa	1073.8
26334 kPa	1073.8
26361 kPa	1073.8
26384 kPa	1073.9
26406 kPa	1073.8
26429 kPa	1073.8
26456 kPa	1074
26478 kPa	1073.9
26501 kPa	1073.8
26722 kPa	1074
26740 kPa	1074
26772 kPa	1074.1
26796 kPa	1074
26824 kPa	1074.1
26848 kPa	1074.1
26871 kPa	1074.2
26899 kPa	1074.2
26923 kPa	1074
